Consider twelve compounds from ChEMBL document CHEMBL1201862, “PubChem BioAssay data set” (2004).

Each structure is given as a SMILES string.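 Grown in 96-well plates, cells were treated for 48 hours with each compound at five concentrations. Insufficient inhibition: endpoint recorded as highest concentration tested. GI50 marks 50% less growth.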 Calls of active or inactive are those of the source. Cut-off read from the data, not from the text of the source: active = GI50 up to about 1.1 µM and inactive = higher. Where only a bound is given, the exact number is not on record here.

Common to all, as to assay: NCI-60 cell line screen, 48 h
Assay [1] has as its system CAKI-1.
The test system of assay [2] is COLO 205.
The subject of assay [3] is DU-145.
For assay [4], the system named is HCC 2998.
Assay [5] has as its system HCT-15.
In assay [6] the test system is HT-29.
The subject of assay [7] is KM12.
Assay [8] deals with MDA-MB-435.
Assay [9] has as its system NCI-H226.
Assay [10] concerns NCI-H23.
The subject of assay [11] is OVCAR-3.
In assay [12] the test system is OVCAR-4.
The test system of assay [13] is OVCAR-8.
Assay [14] relates to RXF 393.
The subject of assay [15] is SF-268.
Assay [16] deals with SF-295.
Assay [17] has as its system SW-620.
The test system of assay [18] is T47D.
Assay [19] has as its system U-251.

For `CCCCC1CCCCCCc2[nH]c(/C=C3\N=C(c4ccc[nH]4)C=C3OC)cc21` (centres undefined), the GI50 in assay [1] is 0.0502 µM (active); in assay [2], < 0.011 µM (active); in assay [3] it was < 0.0109 µM (active); in [4], < 0.01 µM (active); in assay [5], under 0.01 µM; in assay [6] it was < 0.01 µM (active). The GI50 in assay [7] is < 0.01 µM (active); in assay [8], < 0.01 µM (active); in assay [9] it was 0.205 µM (active); in assay [10] it was < 0.0221 µM (active); in [11] it was < 0.01 µM (active); in assay [12], < 0.0127 µM (active). Also, the GI50 was < 0.0223 µM (active) in [13]; 0.078 µM (active) in assay [14]; 0.0676 µM (active) in [15]; < 0.0191 µM (active) in assay [16]; < 0.01 µM (active) in assay [17]; < 0.01 µM (active) in assay [18]. Also, the GI50 in [19] was < 0.0122 µM (active).
For `Cc1nc2ccccc2c(=O)n1/N=C(\N=N\c1cc(Cl)ccc1Cl)c1cccc(-c2ccco2)c1`, the GI50 in assay [1] was > 100 µM (inactive); in assay [2], > 100 µM (inactive); in [4], > 100 µM (inactive); in assay [5], 74.6 µM; in assay [6], > 100 µM (inactive); in [7], 82.6 µM (inactive). In addition, the GI50 in assay [9] is > 100 µM (inactive); in [10] it was > 100 µM (inactive); in assay [11], > 100 µM (inactive); in assay [12] it was > 100 µM (inactive); in assay [13], 95.9 µM (inactive); in assay [14], 67.8 µM (inactive). Besides, the GI50 in [15] was 92 µM (inactive); in assay [16] it was > 100 µM (inactive); in assay [17], > 100 µM (inactive); in assay [19], > 100 µM (inactive).
Turning to `FC(F)(F)c1nc2ccc3[nH]c4c(-c5ccccc5)nccc4c3c2[nH]1`, the GI50 in assay [1] was > 100 µM (inactive); in [2], > 100 µM (inactive); in assay [4], > 100 µM (inactive); in assay [5] it was over 100 µM; in [6], > 100 µM (inactive); in [7] it was > 100 µM (inactive). Besides, the GI50 in assay [9], in assay [10], in [11], in assay [12], in [13] and in assay [14] was > 100 µM (inactive) in each case. Also, the GI50 in [15], in assay [16], in [17] and in assay [19] was > 100 µM (inactive) each time.
As to `SC1=C2CCCCCC2=NC2(CCCCCC2)S1`, the GI50 in assay [1] was 31.5 µM (inactive); in assay [2], 17.7 µM (inactive); in assay [3] it was 30.8 µM (inactive); in assay [4], 23.3 µM (inactive); in assay [5], 37.1 µM; in [6], 24.9 µM (inactive). Moreover, the GI50 in assay [7] was 18.4 µM (inactive); in [8], 30.5 µM (inactive); in [9] it was 12.4 µM (inactive); in assay [10], 9.12 µM (inactive); in assay [11], 20.5 µM (inactive); in assay [12], 16.9 µM (inactive). Further, the GI50 in assay [13] is 28.3 µM (inactive); in [14], 32.6 µM (inactive); in [15], 41.7 µM (inactive); in [16], 23.6 µM (inactive); in assay [17], 32.3 µM (inactive); in [18], 17.4 µM (inactive). The GI50 in [19] is 32 µM (inactive).
Regarding `CC1=NN(c2nc(N)nc(/C(C#N)=C\C3COc4ccccc4C3=O)n2)C(C)(C)C1` (centres undefined), the GI50 in assay [1] was 23.6 µM (inactive); in [3] it was 31.6 µM (inactive); in [4], 30.4 µM (inactive); in [5], 22.9 µM; in assay [6], 26.5 µM (inactive); in assay [7] it was 36.7 µM (inactive). In addition, the GI50 was 32.1 µM (inactive) in [8]; 22.8 µM (inactive) in assay [9]; 27 µM (inactive) in assay [10]; 22.6 µM (inactive) in [11]; 34 µM (inactive) in [12]; 25.6 µM (inactive) in [13]. The GI50 is 16.4 µM (inactive) in assay [14]; 21.1 µM (inactive) in assay [15]; 31.3 µM (inactive) in assay [16]; 30.7 µM (inactive) in assay [17]; 18.2 µM (inactive) in assay [18]; 24.5 µM (inactive) in assay [19].
As to `CC(=O)C1C(=O)C(=O)N(CCN2C(=O)C(=O)C(C(C)=O)C2=O)C1=O` (centres undefined), the GI50 in assay [1] is > 100 µM (inactive); in assay [2] it was > 100 µM (inactive); in [4] it was > 100 µM (inactive); in assay [5], over 100 µM; in assay [6], > 100 µM (inactive); in assay [7], > 100 µM (inactive). Moreover, the GI50 in assay [9], in assay [10], in assay [11], in assay [12], in [13] and in assay [14] was > 100 µM (inactive) throughout. The GI50 in assay [15], in assay [16], in assay [17] and in assay [19] was > 100 µM (inactive) throughout.
For `CC1(Cl)C(=O)NC(=O)N([C@H]2C[C@H](O)[C@@H](CO)O2)C1N=[N+]=[N-]` (some centres undefined), the GI50 in [1] was > 100 µM (inactive); in assay [2], > 100 µM (inactive); in assay [4] it was > 100 µM (inactive); in assay [5], over 100 µM; in assay [6] it was > 100 µM (inactive); in assay [7], > 100 µM (inactive). In addition, the GI50 in assay [9] is > 100 µM (inactive); in assay [10], > 100 µM (inactive); in assay [11], > 100 µM (inactive); in [12], > 96.2 µM (inactive); in [13], > 100 µM (inactive); in [14], > 100 µM (inactive). Besides, the GI50 in assay [15], in assay [16], in [17] and in assay [19] was > 100 µM (inactive) throughout.
Turning to `CC(=O)C(C(C)=O)=C1CCCC(O)O1` (centres undefined), the GI50 in [2] was > 100 µM (inactive); in [3], > 100 µM (inactive); in assay [4] it was > 100 µM (inactive); in assay [5], over 100 µM; in assay [6], > 100 µM (inactive); in assay [7], > 100 µM (inactive). Also, the GI50 in assay [8], in assay [9], in [10], in assay [12], in [13] and in [14] was > 100 µM (inactive) in each case. Moreover, the GI50 in assay [15], in assay [16], in assay [17], in assay [18] and in [19] was > 100 µM (inactive) throughout.
As to `CCN(CC)CCC(=O)Nc1ccc2c(c1)C(=O)c1ccc(NC(=O)CCN(CC)CC)cc1C2=O`, the GI50 is 4.43 µM (inactive) in [1]; 3.28 µM (inactive) in [2]; > 100 µM (inactive) in assay [4]; 2.97 µM in assay [5]; 2.59 µM (inactive) in assay [6]; 1.81 µM (inactive) in assay [7]. Also, the GI50 was 0.308 µM (active) in [9]; 8.2 µM (inactive) in [10]; 4.63 µM (inactive) in [12]; 4.16 µM (inactive) in assay [13]; 2.11 µM (inactive) in assay [14]; 5.62 µM (inactive) in assay [15]. In addition, the GI50 in [16] is 11.3 µM (inactive); in [17], 2.24 µM (inactive); in assay [19], 9.18 µM (inactive).
As to `Cc1ccc(NC(=O)C(=O)C2NC(=S)NC2=O)c([N+](=O)[O-])c1` (centres undefined), the GI50 was > 100 µM (inactive) in assay [1]; > 100 µM (inactive) in [2]; > 100 µM (inactive) in [4]; over 100 µM in [5]; > 100 µM (inactive) in assay [6]; > 100 µM (inactive) in [7]. Besides, the GI50 in assay [9], in [10], in [11], in assay [12], in assay [13] and in [14] was > 100 µM (inactive) each time. Also, the GI50 in [15], in assay [16], in assay [17] and in assay [19] was > 100 µM (inactive) throughout.
On to `Cc1ccccc1-n1c2nc(=O)n(C)c(=O)c-2nc2ccccc21`, for which the GI50 in [1] was 24.4 µM (inactive); in assay [2] it was 3.56 µM (inactive); in [4], 10.8 µM (inactive); in assay [5], 11.1 µM; in assay [6], 4.24 µM (inactive); in assay [7], 12.2 µM (inactive). Besides, the GI50 in assay [9] was 21 µM (inactive); in assay [10] it was 10.1 µM (inactive); in assay [11] it was 2.33 µM (inactive); in assay [12] it was 13.6 µM (inactive); in assay [13], 12.2 µM (inactive); in [14], 17.2 µM (inactive). Further, the GI50 was 12.7 µM (inactive) in assay [15], 14.2 µM (inactive) in assay [16], 13.4 µM (inactive) in [17] and 17.3 µM (inactive) in assay [19].
Turning to `O=C1[C@H]2ON(c3ccccc3)C(c3ccccc3)[C@H]2C(=O)N1c1ccc(Cc2ccc(N3C(=O)[C@@H]4ON(c5ccccc5)C(c5ccccc5)[C@@H]4C3=O)cc2)cc1` (some centres undefined), the GI50 is > 100 µM (inactive) in assay [1]; > 100 µM (inactive) in assay [2]; > 100 µM (inactive) in assay [4]; over 100 µM in assay [5]; > 100 µM (inactive) in assay [6]; > 100 µM (inactive) in assay [7]. Further, the GI50 in assay [9] is > 100 µM (inactive); in [10], > 100 µM (inactive); in assay [11], > 100 µM (inactive); in [12], > 100 µM (inactive); in [14], 88.1 µM (inactive); in assay [15] it was > 100 µM (inactive). The GI50 in assay [16], in assay [17] and in assay [19] was > 100 µM (inactive) each time.
